Laboratory results taken from patent US12378243B2, “Quinoline compounds as inhibitors of KRAS” (Incyte Corporation, priority 2021, dated 2025).

Legend:
[1] = molecular target: KRAS G12D (Homo sapiens, UniProt P01116, G12D); assay: GDP-GTP exchange assay, KRAS G12D; assay type: biochemical; conditions: bodipy-loaded KRAS G12D 2.5 nM, GppNHp 500 uM, SOS1 150 nM; 4 hours pre-incubation, 2 hours incubation; read-out: G12D_exchange
Experimental: Inhibitors were serially diluted in DMSO and a volume of 0.1 μL was transferred to the wells of a black low volume 384-well plate. […] The exchange was initiated by the addition of a 5 μL/well volume containing 1 mM GppNHp and 300 nM SOS1 in assay buffer. […] The reaction plates were incubated at ambient temperature for 2 hours, a time estimated for complete GDP-GTP exchange in the absence of inhibitor.
Either GraphPad prism or Genedata Screener SmartFit was used to analyze the data. The IC50 values were derived by fitting the data to a four parameter logistic equation producing a sigmoidal dose-response curve with a variable Hill coefficient.
“NA” indicates IC50 not available.

[2] = molecular target: KRAS G12V mutant (Homo sapiens, UniProt P01116, G12V); assay: GDP-GTP exchange assay, KRAS G12V; assay type: biochemical; conditions: bodipy loaded KRAS G12V 2.5 nM; 3 hours incubation after adding GppNHp-SOS1 mixture; read-out: G12V_exchange
KRAS G12V mutant, sequence (P01116 1-188 isoform P01116-2 G12V): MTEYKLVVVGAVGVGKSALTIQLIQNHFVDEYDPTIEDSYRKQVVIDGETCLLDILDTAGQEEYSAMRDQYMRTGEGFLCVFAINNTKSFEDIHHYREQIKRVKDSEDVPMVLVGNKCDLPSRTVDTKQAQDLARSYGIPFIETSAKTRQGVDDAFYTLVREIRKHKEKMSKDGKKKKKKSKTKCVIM

[3] = system: Caco-2 cells; assay: Caco2 assay (permeability, A-B); assay type: in vitro ADME; conditions: Table 4; Papp absorptive direction (A-B), test compound 50 μM, 120 minutes at 37° C.
Experimental: Caco-2 cells are grown at 37° C. in an atmosphere of 5% CO2 in DMEM growth medium supplemented with 10% (v/v) fetal bovine serum, 1% (v/v) nonessential amino acids, penicillin (100 U/mL), and streptomycin (100 μg/mL). Confluent cell monolayers are subcultured every 7 days or 4 days for Caco-2 by treatment with 0.05% trypsin containing […]. Caco-2 cells are seeded in 96-well Transwell plates. The seeding density for Caco-2 cells is 14,000 cells/well. DMEM growth medium is replaced every other day after seeding. Cell monolayers are used for transport assays between 22 and 25 days for Caco-2 cells.
Cell culture medium is removed and replaced with HBSS. To measure the TEER, the HBSS is added into the donor compartment (apical side) and receiver compartment (basolateral side). The TEER is measured by using a REMS Autosampler to ensure the integrity of the cell monolayers. Caco-2 cell monolayers with TEER values ≥300 Ω·cm^2 are used for transport experiments. To determine the Papp in the absorptive direction (A-B), solution of test compound (50 μM) in HBSS is added to the donor compartment (apical side), while HBSS solution with 4% BSA is added to the receiver compartment (basolateral side). The apical volume was 0.075 mL, and the basolateral volume is 0.25 mL. The incubation period is 120 minutes at 37° C. in an atmosphere of 5% CO2. At the end of the incubation period, samples from the donor and receiver sides are removed and an equal volume of acetonitrile is added for protein precipitation. The supernatants are collected after centrifugation (3000 rpm, Allegra X-14R Centrifuge from Beckman Coulter, Indianapolis, IN) for LCMS analysis. The permeability value is determined according to the equation:
[formula] • where the flux rate (F, mass/time) is calculated from the slope of cumulative amounts of compound of interest on the receiver side, SA is the surface area of the cell membrane, VD is the donor volume, and MD is the initial amount of the solution in the donor chamber.
The symbol “+” indicates a Caco-2 value of […], “++” indicates a Caco-2 value of >0.5 but ≤1; and “+++” indicates a Caco-2 value of >1. “NA” indicates IC50 not available.

KRAS G12D, sequence (P01116 1-188 isoform P01116-2 G12D): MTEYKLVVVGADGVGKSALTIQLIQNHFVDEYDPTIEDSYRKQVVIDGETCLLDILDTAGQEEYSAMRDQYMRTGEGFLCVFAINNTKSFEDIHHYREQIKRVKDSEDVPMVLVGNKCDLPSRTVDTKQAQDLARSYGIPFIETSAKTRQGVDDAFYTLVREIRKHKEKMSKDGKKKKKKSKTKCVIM

IC50 [1] | IC50 [2] | Caco-2 [3] | Compound
< 100 nM | 100 to 1000 nM | +++ (a Caco-2 value of >1) | CN(C)C(=O)N1CCC[C@@H]1c1cc2c(-n3cncn3)nc3c(F)c(-c4cccc(Cl)c4Cl)c(CCC#N)cc3c2n1[C@H]1[C@H]2CN[C@@H]1C2 [Example 28, (2R)-2-(1-((1R,4R,5S)-2-azabicyclo[2.1.1]hexan-5-yl)-8-(2-cyanoethyl)-7-(2,3-dichlorophenyl)-6-fluoro-4-(1H-1,2,4-triazol-1-yl)-1H-pyrrolo[3,2-c]quinolin-2-yl)-N,N-dimethylpyrrolidine-1-carboxamide]
< 100 nM | < 100 nM | +++ (a Caco-2 value of >1) | COC(=O)N1CCC[C@@H]1c1cc2c(-n3cncn3)nc3c(F)c(-c4cccc(C)c4Cl)c(CCC#N)cc3c2n1[C@H]1[C@H]2CN[C@@H]1C2 [Example 29, Methyl (2R)-2-(1-((1R,4R,5S)-2-azabicyclo[2.1.1]hexan-5-yl)-7-(2-chloro-3-methylphenyl)-8-(2-cyanoethyl)-6-fluoro-4-(1H-1,2,4-triazol-1-yl)-1H-pyrrolo[3,2-c]quinolin-2-yl)pyrrolidine-1-carboxylate]
< 100 nM | < 100 nM | +++ (a Caco-2 value of >1) | COC(=O)N1[C@@H](c2cc3c(-c4ccc(C(=O)N(C)C)nc4)nc4c(F)c(-c5cccc(Cl)c5Cl)c(CCC#N)cc4c3n2[C@H]2[C@H]3CN[C@@H]2C3)C[C@@H]2C[C@@H]21 [Example 30, Methyl (1S,3R,5S)-3-(1-((1R,4R,5S)-2-azabicyclo[2.1.1]hexan-5-yl)-8-(2-cyanoethyl)-7-(2,3-dichlorophenyl)-4-(6-(dimethylcarbamoyl)pyridin-3-yl)-6-fluoro-1H-pyrrolo[3,2-c]quinolin-2-yl)-2-azabicyclo[3.1.0]hexane-2-carboxylate]
< 100 nM | < 100 nM | ++ (a Caco-2 value of >0.5 but ≤1) | COC(=O)N1CCC[C@@H]1c1cc2c(-c3ccc(C(=O)N(C)C)nc3)nc3c(F)c(-c4cccc(Cl)c4Cl)c(CCC#N)cc3c2n1[C@H]1[C@H]2CN[C@@H]1C2 [Example 32, Methyl (2R)-2-(1-((1R,4R,5S)-2-azabicyclo[2.1.1]hexan-5-yl)-8-(2-cyanoethyl)-7-(2,3-dichlorophenyl)-4-(6-(dimethylcarbamoyl)pyridin-3-yl)-6-fluoro-1H-pyrrolo[3,2-c]quinolin-2-yl)pyrrolidine-1-carboxylate]
< 100 nM | < 100 nM | ++ (a Caco-2 value of >0.5 but ≤1) | CNC(=O)c1ccc(-c2nc3c(F)c(-c4cccc(Cl)c4Cl)c(CCC#N)cc3c3c2cc([C@H]2CCCN2C(=O)OC)n3[C@H]2[C@H]3CN[C@@H]2C3)cn1 [Example 33, Methyl (2R)-2-(1-((1R,4R,5S)-2-azabicyclo[2.1.1]hexan-5-yl)-8-(2-cyanoethyl)-7-(2,3-dichlorophenyl)-6-fluoro-4-(6-(methylcarbamoyl)pyridin-3-yl)-1H-pyrrolo[3,2-c]quinolin-2-yl)pyrrolidine-1-carboxylate]
< 100 nM | 100 to 1000 nM | + (a Caco-2 value of 50.5) | Cc1nc2c(F)c(-c3cccc(F)c3Cl)c(CCC#N)cc2c2c1cc([C@H]1CCCN1C(=O)C1CC1)n2[C@H]1[C@H]2CN[C@@H]1C2 [Example 34, 3-(1-((1R,4R,5S)-2-Azabicyclo[2.1.1]hexan-5-yl)-7-(2-chloro-3-fluorophenyl)-2-((R)-1-(cyclopropanecarbonyl)pyrrolidin-2-yl)-6-fluoro-4-methyl-1H-pyrrolo[3,2-c]quinolin-8-yl)propanenitrile]
< 100 nM | < 100 nM | +++ (a Caco-2 value of >1) | C[C@H](c1cc2c(-c3ccc(C(C)(C)O)nc3)nc3c(F)c(-c4cccc5ccc(F)cc45)c(CCC#N)cc3c2n1[C@H]1[C@H]2CN[C@@H]1C2)n1ccncc1=O [Example 37, 3-(1-((1R,4R,5S)-2-Azabicyclo[2.1.1]hexan-5-yl)-6-fluoro-7-(7-fluoronaphthalen-1-yl)-4-(6-(2-hydroxypropan-2-yl)pyridin-3-yl)-2-((R)-1-(2-oxopyrazin-1(2H)-yl)ethyl)-1H-pyrrolo[3,2-c]quinolin-8-yl)propanenitrile]
< 100 nM | < 100 nM | ++ (a Caco-2 value of >0.5 but ≤1) | CNC(=O)c1ncc(-c2nc3c(F)c(-c4cccc(Cl)c4Cl)c(CCC#N)cc3c3c2cc([C@H]2CCCN2C(=O)OC)n3[C@H]2[C@H]3CN[C@@H]2C3)cc1F [Example 39, Methyl (2R)-2-(1-((1R,4R,5S)-2-azabicyclo[2.1.1]hexan-5-yl)-8-(2-cyanoethyl)-7-(2,3-dichlorophenyl)-6-fluoro-4-(5-fluoro-6-(methylcarbamoyl)pyridin-3-yl)-1H-pyrrolo[3,2-c]quinolin-2-yl)pyrrolidine-1-carboxylate]
< 100 nM | < 100 nM | ++ (a Caco-2 value of >0.5 but ≤1) | COC(=O)N1CCC[C@@H]1c1cc2c(-c3ccc(C(C)(C)O)nc3)nc3c(F)c(-c4cccc(Cl)c4Cl)c(CCC#N)cc3c2n1[C@H]1[C@H]2CN[C@@H]1C2 [Example 40, Methyl (2R)-2-(1-((1R,4R,5S)-2-azabicyclo[2.1.1]hexan-5-yl)-8-(2-cyanoethyl)-7-(2,3-dichlorophenyl)-6-fluoro-4-(6-(2-hydroxypropan-2-yl)pyridin-3-yl)-1H-pyrrolo[3,2-c]quinolin-2-yl)pyrrolidine-1-carboxylate]
< 100 nM | < 100 nM | +++ (a Caco-2 value of >1) | CCOC(=O)N1CCC[C@@H]1c1cc2c(-c3ccc(C(C)(C)O)nc3)nc3c(F)c(-c4cccc(Cl)c4Cl)c(CCC#N)cc3c2n1[C@H]1[C@H]2CN[C@@H]1C2 [Example 41, Ethyl (2R)-2-(1-((1R,4R,5S)-2-azabicyclo[2.1.1]hexan-5-yl)-8-(2-cyanoethyl)-7-(2,3-dichlorophenyl)-6-fluoro-4-(6-(2-hydroxypropan-2-yl)pyridin-3-yl)-1H-pyrrolo[3,2-c]quinolin-2-yl)pyrrolidine-1-carboxylate]
< 100 nM | < 100 nM | ++ (a Caco-2 value of >0.5 but ≤1) | [2H]C([2H])([2H])c1nc2c(F)c(-c3cccc(Cl)c3Cl)c(CCC#N)cc2c2c1cc([C@H]1CCCN1C(=O)N1CC(F)(F)C1)n2[C@H]1[C@H]2CN[C@@H]1C2 [Example 42, 3-(1-((1R,4R,5S)-2-Azabicyclo[2.1.1]hexan-5-yl)-7-(2,3-dichlorophenyl)-2-((R)-1-(3,3-difluoroazetidine-1-carbonyl)pyrrolidin-2-yl)-6-fluoro-4-(methyl-d3)-1H-pyrrolo[3,2-c]quinolin-8-yl)propanenitrile]
< 100 nM | < 100 nM | +++ (a Caco-2 value of >1) | N#CCCc1cc2c(ncc3cc([C@H]4CCCN4C(=O)N4CC(F)(F)C4)n([C@H]4[C@H]5CN[C@@H]4C5)c32)c(F)c1-c1cccc(Cl)c1Cl [Example 43, 3-(1-((1R,4R,5S)-2-Azabicyclo[2.1.1]hexan-5-yl)-7-(2,3-dichlorophenyl)-2-((R)-1-(3,3-difluoroazetidine-1-carbonyl)pyrrolidin-2-yl)-6-fluoro-1H-pyrrolo[3,2-c]quinolin-8-yl)propanenitrile]
< 100 nM | < 100 nM | +++ (a Caco-2 value of >1) | CNC(=O)c1ccc(-c2nc3c(F)c(-c4cccc5ccc(F)cc45)c(CCC#N)cc3c3c2cc([C@@H](C)N2CCOCC2=O)n3[C@H]2[C@H]3CN[C@@H]2C3)cn1 [Example 45, 5-(1-((1R,4R,5S)-2-Azabicyclo[2.1.1]hexan-5-yl)-8-(2-cyanoethyl)-6-fluoro-7-(7-fluoronaphthalen-1-yl)-2-((R)-1-(3-oxomorpholino)ethyl)-1H-pyrrolo[3,2-c]quinolin-4-yl)-N-methylpicolinamide]
